Data from US20020120098A1, “Enhanced stimulation of erythropoiesis” (priority 1996, published 2002).

Tests used:
Assay type in all cases: cell-based, human
BFU-E [1] = assay: Colony formation assay, CD34+/CD38- and CD34+/CD33- enriched cord blood cells: BFU-E; conditions: 2 U/ml Epo, 5% O2, 14 days; vs untreated controls under same conditions
Excerpt: CD34^+/CD38^− cells were isolated from cord blood LDMNC using the STEMSEP™ system (StemCell Technologies Inc., Vancouver, Canada). The CD34^+/CD38^− cell purity was increased from <0.1% in unfractionated LDMNC to ˜81% CD34^+/CD38^− cells post fractionation as determined by flow cytometry. To obtain the CD34^+/CD33^− cells CD34^+ cells were first isolated from cord blood LDMNC using the CEPRATE™ LC system (CellPro Inc., Bothell, Wash.). The CD34^+/CD33^− fraction was then enriched to ˜94% purity by flow fluorescence activated cell sorting (FACS; Epics Elite, Coulter Electronics, Hialeah, Fla.). The colony formation assay was conducted as described in Examples 1-4, except that 1×10^3 CD34^+ cells/ml were plated versus 1×10^3 unfractionated cord blood LDMNC/ml normally plated. Mean fold increase in BFU-E and CFU-E progenitor number produced from CD34^+ CD38^− enriched (a; n=2) and CD34^+ CD33^− enriched (b; n=1) cord blood LDMNC stimulated by 1.0 mg/ml HAo (15.6 μM) or HEMOLINK™ (15.6 μM), 100 μM hemin 250 μM FeCl3 in the presence of 2 U/ml Epo is shown in FIG. 13. Cultures were maintained at 5% O2 for 14 days. The results are expressed relative cells treated only with the respective vehicles and cultured under the same conditions.

BFU-E [2] = assay: Colony formation assay (CFA), cord blood LDMNC: BFU-E colonies; conditions: 5% O2, 0.2 U/ml Epo; 100 μM hemin, 1.0 mg/ml HAo or HEMOLINK; relative to controls at 2 U/ml Epo, ambient O2
CFU-E = assay: Colony formation assay (CFA), cord blood LDMNC: CFU-E colonies; conditions: for fold increase in CFU-E at 5% O2: 5% O2, 2 U/ml Epo, 1.0 mg/ml HAo or HEMOLINK, 100 μM hemin, relative to untreated controls at ambient O2; for CFU-E progenitor number, fold increase: 2 U/ml Epo, ambient O2, vs vehicle control
Experimental: This technique, referred to as the colony formation assay (CFA), is the most widely used biological assay to identify and enumerate erythroid progenitors present in hematopoietic tissue such as blood and bone marrow. Cell populations containing erythroid progenitors are plated in semi-solid suspensions of methyl cellulose, agar, low melting agarose or related substances in nutrient culture medium containing 1-3 U/ml Epo and 10 ng/ml IL-3 to specifically stimulate erythroid progenitors. Plates are incubated at 37° C. for 14 days during which time the erythroid progenitors form characteristic hemoglobinized (red) colonies. Two distinct but related erythroid progenitors can be distinguished based on colony size and morphology: BFU-E, the most primitive recognizable erythroid progenitor forms large multilobular colonies whereas the more mature CFU-E forms smaller spherical colonies.
Adult hemoglobin was purified according to U.S Pat. Nos. 5,439,591 and 5,545,328 to obtain HAo and HEMOLINK™ was prepared from HAo according to U.S. Pat. No. 5,532,352. Human umbilical cord blood intended for discard was collected from the umbilical vein of placentas immediately postpartum into 10 ml vacutainer tubes containing 143 USP units/ml sodium heparin. Low density mononuclear cells were separated from red blood cells by centrifugation over a 1.077 g/ml density gradient Cells removed from the plasma/density gradient interface were incubated overnight in a tissue culture flask with 10 ml cell culture medium containing 10% fetal bovine serum, and non-adherent LDMNC were further purified with an additional density gradient step. The LDMNC were then plated into colony formation assays (CFA) on the second day of isolation. In the CFA, LDMNC were plated at a density of 1×10^5 cells/ml in Iscoves modified Dulbeccos cell culture medium containing 0.8% methyl-cellulose, 30% fetal bovine serum, 1% bovine serum albumin, 0.1 mM 2-mercaptoethanol and 2 mM L-glutamine. Unless indicated otherwise, under standard CFA conditions 2 U/ml Epo and 10 ng/ml IL-3 are added to the formulation to stimulate hematopoietic progenitor growth, specifically BFU-E, CFU-E and CFU-GM.
Each condition was tested in duplicate in from 2-18 independent experiments. Cultures were maintained in a humidified incubator at 37° C., 5% CO2 and ambient oxygen tensions. The number of hematopoietic progenitors was scored between days 13-15 by counting the number and types of colonies present.
Erythroid progenitor colony formation assays were conducted as described in Example 1 except that cultures were incubated at either ambient oxygen tensions (˜20% O2) or 5% O2. The reduced oxygen tension of 5% O2 approximates the physiological intravascular oxygen tension in mammals. The mean fold increase in cord blood BFU-E, CFU-E and CFU-GM progenitor number at 5% O2 produced by 1.0 mg/ml HAo (15.6 μM; n=11) or HEMOLINK™ (15.6 μM; n=6), 100 μM hemin (n=10), 250 μM FeCl3 (n=6) or no addition (n=17-18), is shown FIG. 2. Results are expressed relative to control cells treated only with respective vehicles and cultured at ambient oxygen tensions (˜20% O2; fold expansion=1.0; *p<0.05, **p<0.01).
Erythroid progenitor colony formation assays were conducted as described in Example 1 except that cultures were initiated in the presence of Epo concentrations ranging from 0-2 U/ml. The mean fold increase in cord blood BFU-E, CFU-E and CFU-GM progenitor number produced by 1.0 mg/ml HAo (15.6 μM; n=9) or HEMOLINK™ (15.6 μM; n=6), 100 μM hemin (n=8), 250 μM FeCl3 (n=6), or no addition (n=9-10) in the presence of reduced Epo concentrations (0.2 U/ml) is shown in FIG. 3. Cultures were maintained at ambient oxygen tensions (˜20% O2) for 14 days. Results are expressed relative to control cells at 2 U/ml Epo treated only with the respective vehicles (solid line at fold expansion=1.0; *p<0.05, **p<0 01). Erythroid progenitor colonies were undetectable in the absence of Epo. […]

| Compound | increase in BFU-E from CD34+ enriched progenitor populations (in words) (BFU-E [1]) | fold increase in BFU-E at 0.2 U/ml Epo and 5% O2 (BFU-E [2]) | fold increase in CFU-E at 5% O2 (CFU-E) | CFU-E progenitor number, fold increase (CFU-E; dose 10 μg/ml) | CFU-E progenitor number, fold increase (CFU-E; dose 100 μg/ml) | CFU-E progenitor number, fold increase (CFU-E; dose 500 μg/ml) | protection of CFU-E from ganciclovir toxicity (CFU-E; 1 mg/ml HEMOLINK plus 0-100 μM ganciclovir) | CFU-E progenitor number, fold increase (CFU-E; dose 1.0 μM) | CFU-E progenitor number, fold increase (CFU-E; dose 10 μM) | CFU-E progenitor number, fold increase (CFU-E; dose 250 μM) | CFU-E progenitor number, fold increase (CFU-E; dose 64 μM) |
| --- | --- | --- | --- | --- | --- | --- | --- | --- | --- | --- | --- |
| HAo: adult human hemoglobin obtained from red blood cells and purified by displacement chromatography; uncross linked product | stimulated an increase in BFU-E | 3.3 fold | ~3 fold | 1.2 fold | 1.5 fold | *1.4 fold |  |  |  |  |  |
| HEMOLINK™: chemically crosslinked hemoglobin prepared by treating human hemoglobin with a polyaldehyde (O-raffinose) | stimulated an increase in BFU-E | 2.6 fold | ~3 fold |  |  |  | protects CFU-E |  |  |  |  |
| [Cl][Fe]([Cl])[Cl] [FeCl3] | to a lesser extent |  |  |  |  |  |  | 1.0 fold | 1.2 fold | 1.1 fold |  |
| C=CC1=C(C)C2=Cc3c(C=C)c(C)c4[n]3[Fe-2]35([Cl])[n]6c(c(C)c(CCC(=O)O)c6=CC6=[N+]3C(=C4)C(C)=C6CCC(=O)O)=CC1=[N+]25 [hemin] | stimulated an increase in BFU-E | 4 fold | ~3 fold |  |  |  |  | 1.2 fold | *1.6 fold | 2.2 fold | 1.8 fold |
